Test results reported in patent US10344019B2 (priority 2010, dated 2019).
Read-outs that look alike come from different tables or passages of the source.

What was measured:
Type in all cases: cell-based
[1] = system: HCV 1a RLuc cells (dicistronic genotype 1a H77 replicon, RLuc reporter); assay: microbe, parasite or virus in culture; details: Hepatitis C virus, read-out: 1a
In short: (§1)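 Replicons used: genotype 1b Con1, 1a H77, 2a JFH-1, and a 2a JFH-1 chimera with J6-strain NS5A (M31 present), all dicistronic.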

[2] = system: HCV 1b RLuc cells (dicistronic genotype 1b Con1 replicon, RLuc reporter); assay: microbe, parasite or virus in culture; details: Hepatitis C virus, read-out: 1b (nM)
In short: as §1

[3] = system: HCV 2a JFH-1 Rluc cells (dicistronic genotype 2a JFH-1 replicon, RLuc reporter); assay: microbe, parasite or virus in culture; details: Hepatitis C virus, read-out: 2a JFH
In short: as §1

[4] = system: HCV 2b Rluc cells (NS5A chimeric genotype 2a JFH-1 replicon with genotype 2b MD2b-1 NS5A gene, M31 present); assay: microbe, parasite or virus in culture; details: Hepatitis C virus, read-out: 2b
In short: (§2)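 Replicon cells stably carrying the listed RLuc-encoding dicistronic replicons were seeded and treated with DMSO serial dilutions of compound (10 mM stocks) diluted into culture medium. After 72 h, cells were lysed and Renilla luciferase activity measured. EC50 was derived by non-linear regression.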

[5] = system: HCV 3a RLuc cells (NS5A chimeric genotype 1b Con1 replicon with consensus genotype 3a NS5A gene); assay: microbe, parasite or virus in culture; details: Hepatitis C virus
In short: as §2

[6] = system: HCV 4a Rluc cells (NS5A chimeric genotype 1b Con1 replicon with genotype 4a NS5A gene); assay: microbe, parasite or virus in culture; details: Hepatitis C virus, read-out: 4a
In short: as §2

[7] = system: Q30R in genotype 1a NS5A, 1a Rluc replicon transfected into Huh-7 cured-51 cells; assay: HCV replicon assay, resistance mutant 1a Q30R; details: Hepatitis C virus, Huh-7, read-out: 1a Q30R
In short: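 Cells were Huh-7 cured-51 transfected with replicon RNA of a genotype 1a H77 RLuc replicon carrying site-directed Q30R in NS5A.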

[8] = system: HCV 2a Rluc cells (NS5A chimeric genotype 2a JFH-1 replicon with genotype 2a J6 strain NS5A gene, M31 present); assay: HCV replicon reporter assay, genotype 2a J6 (M31 present); details: Hepatitis C virus, read-out: 2a J6
In short: as §1

[9] = genotype 2a JFH-1 RLuc replicon
[10] = read-out: 3a, genotype 3a NS5A chimeric replicon
[11] = read-out: 3a, genotype 3a replicon

| SMILES | EC50 ([1]; genotype 1a H77 RLuc replicon) | EC50 [2] | EC50 [3, 9] | EC50 [4] | EC50 [5, 10] | EC50 [6] | EC50 [7] | EC50 [8] | EC50 ([1]; genotype 1a replicon) | EC50 ([3]; genotype 2a JFH-1 replicon) | EC50 [5, 11] |
| --- | --- | --- | --- | --- | --- | --- | --- | --- | --- | --- | --- |
| COC(=O)N[C@H](C(=O)N1C[C@@H](C)C[C@H]1c1ncc(-c2ccc3c(c2)COc2cc4c(ccc5nc([C@@H]6C[C@H](C)CN6C(=O)[C@@H](NC(=O)OC)C(C)C)[nH]c54)cc2-3)[nH]1)C(C)C [Example 569] | 0.001 to 0.999 nM | 0.024 nM | 0.001 to 0.999 nM | 0.001 to 0.999 nM | 0.001 to 0.99 nM | 0.001 to 0.99 nM | 0.001 to 0.999 nM | 0.001 to 0.999 nM | – | – | – |
| COC(=O)N[C@H](C(=O)N1CCC[C@H]1c1nc2ccc3cc(-c4ccc5c(ccc6nc([C@@H]7CC8(CN7C(=O)[C@H](NC(=O)OC)c7ccccc7)OCCO8)[nH]c65)c4)ccc3c2[nH]1)C(C)C [Example 317] | – | 0.023 nM | – | 0.001 to 0.999 nM | – | 0.001 to 0.99 nM | 0.001 to 0.999 nM | 0.001 to 0.999 nM | 0.001 to 0.999 nM | 0.001 to 0.999 nM | 0.001 to 0.99 nM |
| CCO[C@H]1C[C@@H](c2nc3ccc4cc5c(cc4c3[nH]2)OCc2cc(-c3cnc([C@@H]4CCCN4C(=O)[C@H](NC(=O)OC)c4ccccc4)[nH]3)ccc2-5)N(C(=O)[C@@H](NC(=O)OC)C(C)C)C1 [Example 552] | 0.001 to 0.999 nM | 0.033 nM | 0.001 to 0.999 nM | 0.001 to 0.999 nM | 0.001 to 0.99 nM | 0.001 to 0.99 nM | 0.001 to 0.999 nM | 0.001 to 0.999 nM | – | – | – |
| COC[C@H]1C[C@@H](c2nc3ccc4cc(-c5ccc6c(ccc7nc([C@@H]8C[C@H](SCC(F)(F)F)CN8C(=O)[C@@H](NC(=O)OC)C(C)C)[nH]c76)c5)ccc4c3[nH]2)N(C(=O)[C@H](NC(=O)OC)c2ccccc2)C1 [Example 584] | 0.001 to 0.999 nM | 0.015 nM | 0.001 to 0.999 nM | 0.001 to 0.999 nM | 0.001 to 0.99 nM | 0.001 to 0.99 nM | 0.001 to 0.999 nM | 0.001 to 0.999 nM | – | – | – |
| COC[C@H]1C[C@@H](c2nc3ccc4cc(-c5ccc6c(ccc7nc([C@@H]8CCCN8C(=O)[C@@H](NC(=O)OC)C(C)C)[nH]c76)c5)ccc4c3[nH]2)N(C(=O)[C@@H](NC(=O)OC)C(C)C)C1 [Example 398] | – | 0.023 nM | – | 0.001 to 0.999 nM | – | 0.001 to 0.99 nM | 0.001 to 0.999 nM | 0.001 to 0.999 nM | 0.001 to 0.999 nM | 0.001 to 0.999 nM | 0.001 to 0.99 nM |
| COC[C@H]1C[C@@H](c2nc3ccc4cc(-c5ccc6c(ccc7nc([C@@H]8C[C@H](C)CN8C(=O)[C@@H](NC(=O)OC)C(C)C)[nH]c76)c5)ccc4c3[nH]2)N(C(=O)[C@@H](NC(=O)OC)C2CCOCC2)C1 [Example 560] | 0.001 to 0.999 nM | 0.092 nM | 0.001 to 0.999 nM | 0.001 to 0.999 nM | 0.001 to 0.99 nM | 0.001 to 0.99 nM | 0.001 to 0.999 nM | 0.001 to 0.999 nM | – | – | – |
| COC[C@H]1C[C@@H](c2nc3ccc4cc5c(cc4c3[nH]2)OCc2cc(-c3cnc([C@@H]4C[C@H](C)CN4C(=O)[C@@H](NC(=O)OC)C(C)C)[nH]3)ccc2-5)N(C(=O)[C@@H](NC(=O)OC)C(C)C)C1 [Example 562] | 0.001 to 0.999 nM | 0.019 nM | 0.001 to 0.999 nM | 0.001 to 0.999 nM | 0.001 to 0.99 nM | 0.001 to 0.99 nM | 0.001 to 0.999 nM | 0.001 to 0.999 nM | – | – | – |
| COC[C@H]1C[C@@H](c2nc3ccc4cc(-c5ccc6c(ccc7nc([C@@H]8C[C@H](C)CN8C(=O)[C@@H](NC(=O)OC)C(C)C)[nH]c76)c5)ccc4c3[nH]2)N(C(=O)[C@@H](NC(=O)OC)[C@@H](C)OC)C1 [Example 559] | 0.001 to 0.999 nM | 0.08 nM | 0.001 to 0.999 nM | 0.001 to 0.999 nM | 0.001 to 0.99 nM | 0.001 to 0.99 nM | 0.001 to 0.999 nM | 0.001 to 0.999 nM | – | – | – |
| COC[C@H]1C[C@@H](c2nc3ccc4cc(-c5ccc6c(ccc7nc([C@@H]8CCCN8C(=O)[C@@H](NC(=O)OC)C(C)C)[nH]c76)c5)ccc4c3[nH]2)N(C(=O)[C@H](NC(=O)OC)c2ccccc2)C1 [Example 453] | – | 0.018 nM | – | 0.001 to 0.999 nM | – | 0.001 to 0.99 nM | 0.001 to 0.999 nM | 0.001 to 0.999 nM | 0.001 to 0.999 nM | 0.001 to 0.999 nM | 0.001 to 0.99 nM |
| COC(=O)N[C@H](C(=O)N1[C@H]2CC[C@H](C2)[C@H]1c1nc2ccc3cc(-c4ccc(-c5cnc([C@@H]6CCCN6C(=O)[C@H](NC(=O)OC)c6ccccc6)[nH]5)cc4)ccc3c2[nH]1)C(C)C [Example 424] | – | 0.028 nM | – | 0.001 to 0.999 nM | – | 0.001 to 0.99 nM | 1 to 44 nM | 0.001 to 0.999 nM | 0.001 to 0.999 nM | 0.001 to 0.999 nM | 0.001 to 0.99 nM |
| COC[C@H]1CC(c2nc3ccc4cc(-c5ccc(-c6cnc([C@@H]7CCCN7C(=O)[C@H](NC(=O)C7CC7)c7ccccc7)[nH]6)cc5)ccc4c3[nH]2)N(C(=O)[C@@H](NC(=O)OC)C(C)C)C1 (stereo in doubt) [Example 425] | – | 0.034 nM | – | 0.001 to 0.999 nM | – | 0.001 to 0.99 nM | 0.001 to 0.999 nM | 0.001 to 0.999 nM | 0.001 to 0.999 nM | 0.001 to 0.999 nM | 0.001 to 0.99 nM |
| COC(=O)N[C@H](C(=O)N1[C@H](c2nc3ccc4cc5c(cc4c3[nH]2)OCc2cc(-c3cnc(C4CCCN4C(=O)[C@@H](NC(=O)OC)C4CCOCC4)[nH]3)ccc2-5)C[C@@H]2CCC[C@@H]21)C(C)C (some centres unmarked) [Example 575] | 0.001 to 0.999 nM | 0.029 nM | 0.001 to 0.999 nM | 0.001 to 0.999 nM | 0.001 to 0.99 nM | 0.001 to 0.99 nM | 0.001 to 0.999 nM | 0.001 to 0.999 nM | – | – | – |
| COC[C@H]1C[C@@H](c2nc3ccc4cc(-c5ccc(-c6cnc([C@@H]7CCCN7C(=O)[C@@H](NC(=O)OC)C(C)C)[nH]6)cc5)ccc4c3[nH]2)N(C(=O)[C@H](NC(=O)OC)c2ccccc2)C1 [Example 433] | – | 0.02 nM | – | 0.001 to 0.999 nM | – | 0.001 to 0.99 nM | 0.001 to 0.999 nM | 0.001 to 0.999 nM | 0.001 to 0.999 nM | 0.001 to 0.999 nM | 0.001 to 0.99 nM |
| COC[C@H]1C[C@@H](c2nc3ccc4cc(-c5ccc6c(ccc7nc([C@@H]8CC[C@H](C)N8C(=O)[C@@H](NC(=O)OC)C(C)C)[nH]c76)c5)ccc4c3[nH]2)N(C(=O)[C@H](NC(=O)OC)c2ccccc2)C1 [Example 554] | 0.001 to 0.999 nM | 0.012 nM | 0.001 to 0.999 nM | 0.001 to 0.999 nM | 0.001 to 0.99 nM | 0.001 to 0.99 nM | 0.001 to 0.999 nM | 0.001 to 0.999 nM | – | – | – |
| COC[C@H]1C[C@@H](c2ncc(-c3ccc4c(c3)COc3cc5c(ccc6nc([C@@H]7CCCN7C(=O)[C@@H](NC(=O)OC)C(C)C)[nH]c65)cc3-4)[nH]2)N(C(=O)[C@H](NC(=O)OC)c2ccccc2)C1 [Example 590] | 0.001 to 0.999 nM | 0.014 nM | 0.001 to 0.999 nM | 0.001 to 0.999 nM | 0.001 to 0.99 nM | 0.001 to 0.99 nM | 0.001 to 0.999 nM | 0.001 to 0.999 nM | – | – | – |
| COC(=O)N[C@H](C(=O)N1CCC[C@H]1c1nc2ccc3cc(-c4ccc5c(ccc6nc([C@@H]7[C@@H]8CC[C@@H](C8)N7C(=O)[C@@H](NC(=O)OC)C(C)C)[nH]c65)c4)ccc3c2[nH]1)C(C)C [Example 339] | – | 0.026 nM | – | 1 to 44 nM | – | 0.001 to 0.99 nM | 1 to 44 nM | 0.001 to 0.999 nM | 0.001 to 0.999 nM | 0.001 to 0.999 nM | 0.001 to 0.99 nM |
